Assay [1] addresses T1, Cysteine protease falcipain-3 (Plasmodium falciparum) (UniProt Q9NAW4).
T1 sequence (whole entry): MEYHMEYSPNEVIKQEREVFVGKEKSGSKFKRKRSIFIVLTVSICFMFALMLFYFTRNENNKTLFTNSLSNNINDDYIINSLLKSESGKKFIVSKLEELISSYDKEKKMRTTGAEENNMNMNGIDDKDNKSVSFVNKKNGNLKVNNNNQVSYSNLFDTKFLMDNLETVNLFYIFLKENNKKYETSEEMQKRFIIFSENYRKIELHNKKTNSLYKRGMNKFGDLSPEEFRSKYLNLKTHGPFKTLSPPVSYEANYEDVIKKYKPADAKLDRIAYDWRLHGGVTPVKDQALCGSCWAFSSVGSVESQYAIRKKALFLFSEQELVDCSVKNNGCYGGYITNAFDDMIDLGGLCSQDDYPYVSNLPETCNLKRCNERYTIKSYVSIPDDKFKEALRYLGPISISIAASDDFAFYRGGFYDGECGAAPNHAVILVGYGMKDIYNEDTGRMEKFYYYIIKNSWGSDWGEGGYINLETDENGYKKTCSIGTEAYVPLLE
Kind of assay: Inhibition of recombinant Plasmodium falciparum falcipain-3 expressed in bacterial expression system using ZFR-AMC as substrate at 100 uM measured for 30 mins by fluorimetric assay relative to control.

For assay [2], the target named is T2, Falcipain 2 (Plasmodium falciparum) (UniProt Q9N6S8).
T2 sequence (whole entry): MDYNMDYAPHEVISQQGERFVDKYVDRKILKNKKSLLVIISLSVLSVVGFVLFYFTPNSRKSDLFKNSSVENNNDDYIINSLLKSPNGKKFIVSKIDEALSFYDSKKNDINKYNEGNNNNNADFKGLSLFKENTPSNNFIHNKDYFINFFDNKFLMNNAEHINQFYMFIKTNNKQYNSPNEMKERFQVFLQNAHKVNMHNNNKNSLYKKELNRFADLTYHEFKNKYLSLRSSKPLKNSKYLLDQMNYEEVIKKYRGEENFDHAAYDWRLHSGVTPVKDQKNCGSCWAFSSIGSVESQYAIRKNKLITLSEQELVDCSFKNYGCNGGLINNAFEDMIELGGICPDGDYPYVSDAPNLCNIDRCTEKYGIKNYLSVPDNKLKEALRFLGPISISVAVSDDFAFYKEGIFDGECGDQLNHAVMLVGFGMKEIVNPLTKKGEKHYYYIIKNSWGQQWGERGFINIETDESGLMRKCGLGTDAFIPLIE
The assay can be described thus: Inhibition of recombinant Plasmodium falciparum falcipain-2 expressed in bacterial expression system using ZFR-AMC as substrate at 100 uM measured for 30 mins by fluorimetric assay relative to control.

The target of the next assay is T3, Falcipain 2 (Plasmodium falciparum, UniProt Q9N6S8).
T3 sequence (Q9N6S8 whole entry): T2 sequence (whole entry)
Kind of assay: Inhibition of recombinant Plasmodium falciparum falcipain-2 expressed in bacterial expression system using ZFR-AMC as substrate measured for 30 mins by fluorimetric assay.

Assay [3] deals with Plasmodium falciparum. Kind of assay: Antimalarial activity against Plasmodium falciparum 3D7 infected in human erythrocytes assessed as increase in arrest of ring stage at 100 uM measured after 46 hrs by giemsa staining based light microscopy. The format is functional, organism-based.
Assay [4] concerns the target T4, Cysteine protease falcipain-3 (Plasmodium falciparum, UniProt Q9NAW4).
T4 sequence (Q9NAW4 whole entry): T1 sequence (whole entry)
The assay can be described thus: Inhibition of recombinant Plasmodium falciparum falcipain-3 expressed in bacterial expression system using ZFR-AMC as substrate measured for 30 mins by fluorimetric assay.

In assay [5] the test system is Plasmodium falciparum. The assay can be described thus: Antimalarial activity against Plasmodium falciparum 3D7 infected in human erythrocytes assessed as increase in arrest of ring stage at 100 uM incubated for 46 hrs by giemsa staining based light microscopy. The class given is functional, organism-based.
Assay [6] relates to Plasmodium falciparum. Kind of assay: Antimalarial activity against Plasmodium falciparum 3D7 infected in human erythrocytes assessed as morphological abnormalities at 10 uM incubated for 54 hrs by giemsa staining based light microscopy. The format is functional, organism-based.
The subject of assay [7] is Plasmodium falciparum. Kind of assay: Antimalarial activity against Plasmodium falciparum 3D7 infected in human erythrocytes assessed as food-vacoules abnormalities at 10 uM incubated for 54 hrs by giemsa staining based light microscopy. The format is functional, organism-based.
In assay [8] the test system is Plasmodium falciparum. The assay can be described thus: Antimalarial activity against Plasmodium falciparum 3D7 infected in human erythrocytes assessed as increase in arrest of ring stage at 100 uM incubated for 54 hrs by giemsa staining based light microscopy relative to control. The class given is functional.

From ChEMBL document CHEMBL4609980, “Identification of antimalarial leads with dual falcipain-2 and falcipain-3 inhibitory activity” (Bioorg Med Chem, 2020) come the findings set out here.

Calls of active or inactive are those of the source. No cut-off for these calls is given here.

One may read the inhibition as how much of the control response was suppressed. Regarding `O=C1CN(CC(=O)NC2CCOc3ccccc32)CCN1` (stereo unspecified), the inhibition in assay [1] and in assay [2] was 25% in each case.

On to `O=C1C[C@H](C(=O)Nc2ccccc2)NC(N2CCN(Cc3ccccc3)CC2)=N1`, for which the figures for the inhibition in assay [1] and in assay [2] were 17% and 44%, respectively.

Take `O=C(Nc1ccc([C@@H]2C=c3ccccc3=N2)cc1)[C@@H]1CCCN1C1CCOCC1`: the inhibition in assay [1] amounted to 50%; in [2], 46%.

As to `O=C(CCC1=CC(=O)C2C(=N1)SC1=C2CCCC1)NC1CCCCNC1=O` (stereo unspecified), the values for the inhibition in assay [1] and in assay [2] were 39% and 49%, respectively.

For the compound `O=C(NCCCn1nc2n(c1=O)CCCC2)c1cc2c(cc1O)CCCC2`, the inhibition is 15% in [1] and 42% in [2].

As a reminder, the IC50 is the concentration needed to halve the response being measured. On to `CN1CCCc2cc(CCNC(=O)C(=O)Nc3ccc4c(c3)OCO4)ccc21`, for which the IC50 at Falcipain 2 stood at 14.7 µM; in assay [4] it was 9.98 µM. In addition, the values for the inhibition in assay [1] and in assay [2] were 61% and 53%, respectively. Also, in the assay on Plasmodium falciparum [3], the outcome was inactive. Further, in the assay on Plasmodium falciparum [5], the outcome was Active.

As for `Cc1ccc(NC(=O)CN2CCC[C@H](c3nc4ccccc4o3)C2)cc1C`, the inhibition in assay [1] is 9%; in assay [2], 41%.

For `O=C(CN1CCN(C2=NCCC=N2)CC1)Nc1cccc2ccccc12`, the inhibition in assay [1] turned out to be 21%; in assay [2], 19%.

Consider `O=C(CN1CCC(C2N=c3ccccc3=N2)CC1)Nc1cccc2ccccc12`, for which the inhibition amounted to 49% in assay [1] and 47% in [2].

For `CC(C)C[C@H](NC(=O)[C@H]1O[C@@H]1C(=O)O)C(=O)NCCCCN=C(N)N`, the result in the assay with Plasmodium falciparum [6] and in the assay on Plasmodium falciparum [7] was Active.

Take `Cc1ccc(NCC(=O)NC2CC2)cc1S(=O)(=O)C1CCCCC1`: the inhibition was 6% in [1] and 19% in assay [2].

Regarding `O=C(CNC(=O)N1CCN(Cc2ccccc2)CC1)NC1=CC2=CC=N[C@@H]2C=C1`, the inhibition in assay [1] was determined as 15%; in [2] it was 39%.

As to `Cc1cccc(O)c1OC1CCN(CC(=O)Nc2ccc(CN3CCOCC3)cc2)CC1`, the inhibition in [1] was determined as 25%; in assay [2], 43%.

For the compound `O=C(NCCCNC(=O)c1cc2ccccc2[nH]1)c1ccc(-c2ccccc2)cc1`, the values for the IC50 (on Falcipain 2; in [4]) were 12.2 µM and 8.56 µM, respectively. In addition, the inhibition was 62% in assay [1] and 51% in assay [2]. Moreover, the Activity with Plasmodium falciparum [8] came to 100%.

For `CCc1ccc(NC(=O)CN2CCN(c3nc4ccccc4s3)CC2)cc1`, the inhibition in assay [1] came to 26%; in [2], 43%.

Take `O=C(CN1CCC(c2ccccc2)C1)NC1CCC2(CC1)OCCO2` (stereo unspecified): the inhibition in [1] was determined as 69%; in [2], 22%.

For `O=C1CCc2cc(CNC(=O)Cn3ncc4ccccc4c3=O)ccc2C1`, the inhibition in assay [1] was 41%; in assay [2], 42%.
